# From patent US12527837B2, “Peptide for use in the prevention and/or treatment of a disease caused by a virus affecting the respiratory tract” (priority 2020, dated 2026)
# Where two headings read alike, the source gives them in different places. No end group written: not given here.
# Columns and labels:
# [1] = tested on: standardised antigens from H1N1 virus; assay: Haemagglutination Inhibition Assay (HAI) with standardised antigens of influenza virus subtype H1N1; type: cell-based; settings: for activity of lysine-acetylated derivatives against the influenza virus compared with the parent peptides of example 2.1: HAI with standardised antigens
# [2] = tested on: live virus from subtype H1N1 of influenza virus; assay: HAI with live influenza virus subtype H1N1; type: cell-based; settings: live virus 4 HAU/25 μl; 1.5% v/v turkey red blood cells; FIG. 4A
# [3] = tested on: live virus from subtype H3N2 of influenza virus; assay: HAI with live influenza virus subtype H3N2; type: cell-based; settings: live virus 4 HAU/25 μl; 1.5% v/v turkey red blood cells; FIG. 4B
# [4] = tested on: human coronavirus HcoV-OC43; assay: HAI with heat-inactivated viral lysate of HcoV-OC43; type: cell-based; settings: heat-inactivated viral lysate 4 UHA/25 μl; 1.5% v/v turkey RBC; FIG. 5
# [5] = tested on: human coronavirus SARS-CoV-2; assay: HAI with heat-inactivated viral lysate of SARS-CoV-2; type: cell-based; settings: heat-inactivated viral lysate 4 UHA/25 μl; 1.5% v/v turkey RBC; FIG. 5
# measles virus = assay: HAI with heat-inactivated viral lysate of measles virus; type: cell-based; settings: heat-inactivated viral lysate 4 UHA/25 μl; 1.5% v/v turkey RBC; FIG. 5
# [6] = MDCK cells, 20 hours, MTS, FIG. 10
# [7] = MDCK cells, 20 hours, MTS, highest concentration tested 1 mg/ml
substance,measurement,setting,value
LEK*GLDGAKK AVGGLGKLGKDAVEDLESVGKGAVHDVKDVL (LEK(Ac)GLDGAKKAVGGLGKLGKDAVEDLESVGKGAVHDVKDVL) [SEQ ID No.: 29],activity of lysine-acetylated derivatives against the influenza virus compared with the parent peptides of example 2.1,[1],the same activity
LEK*GLDGAKK AVGGLGKLGKDAVEDLESVGKGAVHDVKDVLD (LEK(Ac)GLDGAKKAVGGLGKLGKDAVEDLESVGKGAVHDVKDVLD) [SEQ ID No.: 19],activity of lysine-acetylated derivatives against the influenza virus compared with the parent peptides of example 2.1,[1],the same activity
LEK*GLDGAKK AVGGLGKLGKDAVEDLESVGKGAVHDVKDVLDSVL (LEK(Ac)GLDGAKKAVGGLGKLGKDAVEDLESVGKGAVHDVKDVLDSVL) [SEQ ID No.: 20],activity of lysine-acetylated derivatives against the influenza virus compared with the parent peptides of example 2.1,[1],the same activity
same,activity against the H1N1 subtype of live influenza virus (HAI),[2],had activity
same,activity against the H3N2 subtype of live influenza virus (HAI),[3],had activity
"LEKGLDGAKKAVGGLGKLGKDAVEDLESVGKGAVHDVKDVLD (LEKGLDGAKKAVGGLGKLGKDAVEDLESVGKGAVHDVKDVLD; LEK-42) [SEQ ID No.: 1, dermcidin fragment]",activity against standardised antigens of H1N1 subtype of influenza virus (inhibiting haemagglutination),"[1]; H1N1 antigens 8 HAU/50 μl, 5% v/v turkey red blood cells, FIG. 2 and FIG. 3",had activity
"LEKGLDGAKKAVGGLGKLGKDAVEDLESVGKGAVHDVKDVLDSVL [SEQ ID No.: 2, LEKGLDGAKKAVGGLGKLGKDAVEDLESVGKGAVHDVKDVLDSVL]",peptides that cause significant toxicity in cells,MDCK cells; [6],none
same,cells in the culture that exhibited toxicity,MDCK cells; [7],20%
"RRKKAAVALLPAVLLALLAP [EB, RRKKAAVALL PAVLLALLAP, reference compound]",cytotoxicity observed in the culture,MDCK cells,total cell destruction
same,cytotoxicity of the cells in the culture,MDCK cells,50%
SSLLEK*GLDG AKKAVGGLGK LGKDA (SSLLEK(Ac)GLDGAKKAVGGLGKLGKDA) [SEQ ID No.: 28],activity of lysine-acetylated derivatives against the influenza virus compared with the parent peptides of example 2.1,[1],the same activity
SSLLEK*GLDG AKKAVGGLGKLGKDAVEDLESVGKGAVHDVKDVLD (SSLLEK(Ac)GLDGAKKAVGGLGKLGKDAVEDLESVGKGAVHDVKDVLD) [SEQ ID No.: 21],activity of lysine-acetylated derivatives against the influenza virus compared with the parent peptides of example 2.1,[1],the same activity
same,activity against the H3N2 subtype of live influenza virus (HAI),[3],had activity
SSLLEK*GLDG AKKAVGGLGKLGKDAVEDLESVGKGAVHDVKDVLDSV (SSLLEK(Ac)GLDGAKKAVGGLGKLGKDAVEDLESVGKGAVHDVKDVLDSV) [SEQ ID No.: 22],activity against the H1N1 subtype of live influenza virus (HAI),[2],had activity
same,activity against the H3N2 subtype of live influenza virus (HAI),[3],had activity
same,activity against HcoV-OC43 (preventing adhesion of the virus to RBCs),[4],active
same,activity against SARS-CoV-2 (preventing adhesion of the virus to RBCs),[5],active
same,activity against measles virus (preventing adhesion of the virus to RBCs),measles virus,active
SSLLEK*GLDG AKKAVGGLGKLGKDAVEDLESVGKGAVHDVKDVLDSVL (SSLLEK(Ac)GLDGAKKAVGGLGKLGKDAVEDLESVGKGAVHDVKDVLDSVL) [SEQ ID No.: 23],activity of lysine-acetylated derivatives against the influenza virus compared with the parent peptides of example 2.1,[1],the same activity
same,activity against the H1N1 subtype of live influenza virus (HAI),[2],had activity
same,activity against the H3N2 subtype of live influenza virus (HAI),[3],had activity
same,activity against HcoV-OC43 (preventing adhesion of the virus to RBCs),[4],active
same,activity against SARS-CoV-2 (preventing adhesion of the virus to RBCs),[5],active
same,activity against measles virus (preventing adhesion of the virus to RBCs),measles virus,active
"SSLLEKGLDGAKKAVGGLGKLGKDAVEDLESVGKGAVHDVKDVLD [SEQ ID No.: 3, SSLLEKGLDGAKKAVGGLGKLGKDAVEDLESVGKGAVHDVKDVLD]",peptides that cause significant toxicity in cells,MDCK cells; [6],none
same,cells in the culture that exhibited toxicity,MDCK cells; [7],20%
"SSLLEKGLDGAKKAVGGLGKLGKDAVEDLESVGKGAVHDVKDVLDSVL [SEQ ID No.: 5, SSLLEKGLDGAKKAVGGLGKLGKDAVEDLESVGKGAVHDVKDVLDSVL]",cells in the culture that exhibited toxicity,MDCK cells,20%
same,peptides that cause significant toxicity in cells,MDCK cells,none
